Data on 1 compound can be found in patent US8753652B2, “Pharmaceutical composition including a DHA ester to be administered parenterally” (Pierre Fabre Medicament, priority 2009, dated 2014).

Data set [1] can be described thus: Lipophilicity (Log P) of the nicotinic ester of DHA. It counts as physicochemical. As for the experimental part: (§1) It is a very lipophilic compound (Log P approximately 7), wherein the solubility at equilibrium in water is <1 μg/ml. It is thus particularly difficult to formulate for parenteral administration.
Data set [2] in a line: Solubility at equilibrium in water. It counts as physicochemical. Conditions: thermodynamic from solid. As for the experimental part: as §1

Bounds are passed on as bounds.

Broadly, the logP is a log measure of how a compound divides between an organic and an aqueous phase. Lower therefore signals lower lipophilicity. For orientation: solubility means the concentration that dissolves in the medium under given conditions. High values mean much dissolved substance, low ones little dissolved substance.

Consider `CC/C=C\C/C=C\C/C=C\C/C=C\C/C=C\C/C=C\CCC(=O)OCc1cccnc1` [nicotinic ester of DHA, pyridin-3-ylmethyl-cis-4,7,10,13,16,19-docosahexaenoic acid], for which the logP in data set [1] is approximately 7. In data set [2], this compound registered a solubility of less than 1 µg/mL.
